According to PubChem BioAssay (NCI):
Several values for one entry are separate records, joined by “and”; a condition that tells them apart may be missing. Equal values may be shown once.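 The compound was tested at five concentrations on cells cultured in 96-well plates, with a 48-hour exposure period. GI50 = concentration required for 50% inhibition of growth. TGI marks complete inhibition of growth.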

How the values were obtained:
Test in all cases: NCI tumour cell line growth inhibition, 48 h
786-0 renal = test system: 786-0 renal
CAKI-1 renal = test system: CAKI-1 renal
RXF 393 renal = test system: RXF 393 renal
UACC-62 melanoma = test system: UACC-62 melanoma
NCI-H460 lung = test system: NCI-H460 lung
ACHN renal = test system: ACHN renal
EKVX NSCLC = test system: EKVX NSCLC
IGROV1 ovarian = test system: IGROV1 ovarian
MOLT-4 leukemia = test system: MOLT-4 leukemia
SR leukemia = test system: SR leukemia

| Structure (SMILES) | TGI (786-0 renal) | TGI (CAKI-1 renal) | TGI (RXF 393 renal) | TGI (UACC-62 melanoma) | TGI (NCI-H460 lung) | TGI (ACHN renal) [µM] | TGI (EKVX NSCLC) | TGI (IGROV1 ovarian) [µM] | TGI (MOLT-4 leukemia) [µM] | GI50 (IGROV1 ovarian) [µM] | GI50 (786-0 renal) [µM] | GI50 (MOLT-4 leukemia) [µM] | GI50 (CAKI-1 renal) [µM] | GI50 (UACC-62 melanoma) [µM] | GI50 (NCI-H460 lung) [µM] | GI50 (ACHN renal) [µM] | GI50 (EKVX NSCLC) [µM] | TGI (SR leukemia) [µM] | GI50 (RXF 393 renal) [µM] |
| --- | --- | --- | --- | --- | --- | --- | --- | --- | --- | --- | --- | --- | --- | --- | --- | --- | --- | --- | --- |
| CC[C@@]1(O)C[C@H](OC2CC(N(C)C)C(OC3CC(O)C(OC4CCC(=O)C(C)O4)C(C)O3)C(C)O2)c2c(cc3c(c2O)C(=O)c2c(O)cccc2C3=O)[C@H]1C(=O)OC (some centres undefined) | 0.25 µM and 0.476 µM | 0.179 µM and 0.373 µM | 0.0345 µM and 0.124 µM | 0.0491 µM and 0.115 µM | 0.06 µM and 0.0662 µM | 0.579 | 0.415 µM and 0.452 µM |  |  |  |  |  |  |  |  |  |  |  |  |
| O=C(/C=C/c1ccccc1)CC1OC(=O)c2ccccc21 (centres undefined) | > 100 µM |  | > 100 µM | 66.5 µM | > 100 µM | > 100 | > 100 µM | > 100 | > 100 |  |  |  |  |  |  |  |  |  |  |
| C=CC1[C@H]2COC(C)(C)O[C@@H]2CC(=O)C1(C)C (some centres undefined) | > 100 µM | > 100 µM | > 100 µM |  | > 100 µM | > 100 | > 100 µM |  |  |  |  |  |  |  |  |  |  |  |  |
| O=C([CH-]C(=O)c1ccccc1)c1ccccc1.O=C([CH-]C(=O)c1ccccc1)c1ccccc1.O=C([CH-]C(=O)c1ccccc1)c1ccccc1.[Nd+3].[OH3+] | 18.5 µM | 20.8 µM |  | 19.2 µM | > 100 µM | 21.2 | 13.9 µM | 49.8 | 12.5 | 6.72 | 5.06 | 2.24 | 5.34 | 4.3 | 3.41 | 5.93 | 2.8 |  |  |
| Clc1ccc(Cc2nc3ccccc3s2)c(Cl)c1 | 27.8 µM | 31.2 µM | 36 µM | 28.9 µM | 41.4 µM | 34.9 | 42.1 µM | 30.6 | 41.2 |  |  |  |  |  |  |  |  |  |  |
| CCCCC1CC(c2cccc([N+](=O)[O-])c2)=NO1 (centres undefined) | > 100 µM | > 100 µM |  | > 100 µM | > 100 µM | > 100 | > 100 µM | > 100 | > 100 |  |  |  |  |  |  |  |  | > 100 |  |
| O=C(c1ccc(Cl)cc1)c1ccc(OCCCCCCCCCCOc2ccc(C(=O)c3ccc(Cl)cc3)cc2)cc1 | > 100 µM | > 100 µM | > 100 µM | > 100 µM | > 100 µM | > 100 | > 100 µM | > 100 | > 100 |  |  |  |  |  |  |  |  |  |  |
| CS(=O)(=O)OCCN1CCN(C(=O)c2cccc3c(Nc4ccc(S(=O)(=O)N=C(N)N)cc4)c4ccccc4nc23)CC1 | > 100 µM | > 100 µM | > 100 µM | > 100 µM | > 100 µM | > 100 |  | > 100 | > 100 |  |  |  |  |  |  |  |  |  |  |
| OC1c2ccccc2C2(O)C1C(c1ccccc1)C(c1ccccc1)C2(O)c1ccccc1 (centres undefined) | 31.1 µM | > 100 µM | 76.2 µM | 28.4 µM | 19.5 µM | 29.7 | 70.8 µM | 82.9 | 22.8 |  |  |  |  |  |  |  |  |  |  |
| C/C(=N\O)c1cccc(Nc2cc(-n3ccnn3)c3ccccc3n2)c1 | 51.5 µM | 70.6 µM | 39.8 µM | 25.4 µM | > 100 µM | 34 | 76.1 µM | 27.7 | 28.2 | 12.6 | 18.3 | 11.6 | 21.3 | 12.8 | 48.9 | 15 | 19 |  | 13.6 |
